Assay results published in PMC3088120 (ACS medicinal chemistry letters, 2011).

What was measured:
E. coli DNA gyrase = E. coli DNA gyrase (Escherichia coli, UniProt P0AES4+P0AES6); assay: in vitro dsDNA break; format: biochemical; settings: 1 tested at ≤3.3 mM
[1] = tested on: E. coli and S. aureus DNA gyrase; settings: in vitro; cited from earlier work

Chain of E. coli DNA gyrase (P0AES4 whole entry, one chain of several): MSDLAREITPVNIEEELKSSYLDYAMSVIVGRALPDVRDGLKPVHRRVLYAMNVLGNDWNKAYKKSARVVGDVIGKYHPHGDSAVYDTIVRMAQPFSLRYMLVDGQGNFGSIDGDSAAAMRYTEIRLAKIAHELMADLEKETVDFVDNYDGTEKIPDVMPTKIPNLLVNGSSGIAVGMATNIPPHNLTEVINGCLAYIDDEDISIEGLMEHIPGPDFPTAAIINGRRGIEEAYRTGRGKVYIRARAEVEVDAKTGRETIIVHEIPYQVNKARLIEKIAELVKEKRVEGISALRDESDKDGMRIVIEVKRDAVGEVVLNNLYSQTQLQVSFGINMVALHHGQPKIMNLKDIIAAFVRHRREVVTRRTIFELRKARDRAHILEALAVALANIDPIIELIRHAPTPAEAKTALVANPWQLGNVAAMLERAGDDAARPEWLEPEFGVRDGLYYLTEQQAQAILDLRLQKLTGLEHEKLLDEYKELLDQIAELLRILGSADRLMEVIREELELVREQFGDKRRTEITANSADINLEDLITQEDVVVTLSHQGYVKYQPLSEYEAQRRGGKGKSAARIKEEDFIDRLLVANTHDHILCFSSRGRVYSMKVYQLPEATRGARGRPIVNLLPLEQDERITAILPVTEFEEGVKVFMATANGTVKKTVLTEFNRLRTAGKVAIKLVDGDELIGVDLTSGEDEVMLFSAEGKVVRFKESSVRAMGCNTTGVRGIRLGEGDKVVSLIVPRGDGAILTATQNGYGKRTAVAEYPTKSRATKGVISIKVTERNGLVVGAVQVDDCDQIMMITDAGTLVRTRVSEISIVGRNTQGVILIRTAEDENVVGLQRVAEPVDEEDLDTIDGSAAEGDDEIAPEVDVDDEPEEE

Row | Structure (SMILES) | generation of dsDNA breaks / linearized DNA (E. coli DNA gyrase) | release of dsDNA ends [1]
1 | O=C(O)c1cn(C2CC2)c2cc(N3CCNCC3)c(F)cc2c1=O [ciprofloxacin] | production of dsDNA breaks | 
2 | COc1ccc2ncc(F)c([C@@H](O)CC[C@@H]3CCN(CCSc4cccs4)C[C@@H]3C(=O)O)c2c1 [NXL101] |  | does not release dsDNA ends
